One may read the viability, T/C as the ratio of treated to control. For orientation: IC50 means the concentration that gives 50% inhibition.

The results in this text go back to PubChem BioAssay AID2060896 (Molecular Pharmacology Branch, DTP, NCI, 2025).

For this test, the system named is 941728-121-R-J1-PDC complex spheroid viability. The test can be described thus: Anticancer human tumor 941728-121-R-J1-PDC patient-derived lung adenocarcinoma cell line growth inhibition [RAS]. Conditions: for viability, T/C: stronger effect = lower value. An excerpt:
RAS pathway inhibitors in Combinations in Complex Spheroids
A high-throughput screen of multi-cell type tumor spheroids was designed to identify active combinations of RAS pathway inhibitors and targeted small molecules. Complex spheroids include a stromal component modeled by human endothelial cells (HUVEC) and fibroblasts modeled by human mesenchymal stem cells (MSCs). The concentration ranges selected for each drug and investigational agent were based upon clinically achievable concentrations if the clinical Cmax of the agent was known.
Compounds. The drugs and investigational agents: abemaciclib (NSC768073), cobimetinib (NSC768068), divarasib (GDC6063, NSC841802), docetaxel (NSC628503), GDC-1971 (RLY-1971, NSC841576), gemcitabine (NSC613327), inavolisib (NSC800729), ipatasertib (NSC767898), KB-0742 (NSC834161), MRTX-1133 (NSC836407), osimertinib (NSC779217), RMC-4630 (NSC839698), RMC-6236 (NSC851965), RMC-6291 (NSC852671), Ro-3306 (NSC812927), sapanisertib (NSC764658), SN-38 (NSC673596), staurosporine (NSC755774), SY5609 (NSC837396), and tovorafenib (DAY101, NSC766906), were obtained from the National Cancer Institute (NCI) Developmental Therapeutics Program Chemical Repository. The FDA-approved anticancer drug set is available from the NCI Developmental Therapeutics Program. […] The stock solutions were prepared in dimethyl sulfoxide (DMSO, Sigma-Aldrich, St. Louis, MO, cat. D2650) at 800-fold the tested concentration and stored at -70 degrees C prior to their use. All drugs and investigational agents were tested over a range starting from a high concentration at or near the clinical Cmax and decreasing in half-log increments. If the clinical Cmax for an agent had not been determined, the highest concentration tested was 10 microM.
Cell Culture. All cells were maintained in an incubator at 37 degrees C and 5% CO2 with 95% humidity. The PDC lines were cultured according to standard operating procedures established by the NCI PDMR. All PDCs were thawed and cultured in Matrigel-coated flasks prepared with a working solution of 1X Ham's F-12 nutrient mix, without supplementation (Invitrogen, Waltham, MA, cat. 11765054), 100 U/mL penicillin-streptomycin (Invitrogen, cat. 15140122), and 2.5% Matrigel (Corning Inc., Corning, NY, cat. 354248) for the first three passages. The 362531-283-R-J2-PDC and 782815-120-R-J1-PDC lines were cultured in 6C/Colon 1B media, which includes advanced DMEM/F-12 (Thermo Fisher Scientific, cat. 12634028), 10 mM HEPES (Thermo Fisher Scientific, cat. 15630080), 1X GlutaMAX supplement (Thermo Fisher Scientific, cat. 35050061), 0.1 mg/mL primocin (InvivoGen, San Diego, CA, cat. ant-pm-2), 10% defined fetal bovine serum, heat inactivated (HyClone Laboratories Inc., Logan, UT, cat. SH30070.03HI), 50% L-WRN conditioned media (ATCC, cat. CRL-3276), 1.25 mM N-Acetyl-L-cysteine (Sigma-Aldrich, cat. A9165), 10 mM nicotinamide (Sigma-Aldrich, cat. N0636), 1X B-27 supplement (Thermo Fisher Scientific, cat. 17504044), 1X N-2 supplement (Thermo Fisher Scientific, cat. 17502048), 50 ng/mL human EGF (Thermo Fisher Scientific, cat. PHG0311), and 10 microM Y-27632 dihydrochloride (Tocris Bioscience, cat. 1254). The K12877-001-R-J1-PDC line was cultured in 6I media, which includes all 6C/Colon 1B media plus 10 ng/mL human FGF-10 (PeproTech, cat. 100-26), 1 ng/mL human FGF-2 (PeproTech, cat. 100-18B), 1 µM prostaglandin E2 (Tocris Bioscience, cat. 2296), […] hydrocortisone (Sigma-Aldrich, cat. H4001), and […] bovine insulin (Sigma-Aldrich, cat. I6634). The K86415-001-R-J1-PDC line was cultured in 6D media, which includes all 6C/Colon 1B media components minus the L-WRN conditioned media. The 485176-168-R4-J1-PDC was cultured in PANC media, which includes all 6C/Colon 1B media plus 100 ng/mL human FGF-10 (PeproTech, cat. 100-26), 500 nM SB-431542 (Selleckchem, cat. S1067), and 10 nM gastrin (Tocris Bioscience, cat. 3006). […]

The mark [1] stands for this setting: compound alone, run of 07/15/2024.
Setting [2] is: compound alone, run of 07/09/2024.

Values joined by “and” are separate entries in the source; they are usually repeats but may differ in a detail not shown here. Equal entries are not always repeated. Bounds are passed on as bounds.
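Note: spheroids exposed to compounds for 7 days before readout.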

As to `C#Cc1c(F)ccc2cc(O)cc(-c3ncc4c(N5CC6CCC(C5)N6)nc(OCC56CCCN5CC(F)C6)nc4c3F)c12` (configuration not stated), the viability, T/C (compound 0.0316 µM) is 87.4% [middle of 8 runs]; the viability, T/C (compound 0.1 µM) was 82.9% [middle of 8 runs]; the viability, T/C (compound 0.316 µM) was 61.2% [middle of 8 runs]; the viability, T/C (compound 1 µM) was 41.3% [middle of 8 runs]; the viability, T/C (compound 3.16 µM) is 32.1% [middle of 8 runs]; the viability, T/C (compound 10 µM) was 23.3% [middle of 8 runs]. Also, the IC50 under setting [1] is 603 nM [middle of 8 runs].

As for `C=CC(=O)N1CCN(c2nc(OCC3CCCN3C)nc3c(F)c(-c4nc(N)cc(C)c4C(F)(F)F)c(Cl)cc23)C(C)C1` (configuration not stated), the viability, T/C is, setting by setting: (compound 0.00316 µM) 21.7% [middle of 12 runs]; (compound 0.01 µM) 19.7% [middle of 12 runs]; (compound 0.0316 µM) 19.9% [middle of 12 runs]; (compound 0.1 µM) 19.5% [middle of 12 runs]; (compound 0.316 µM) 22.8% [middle of 12 runs]; (compound 1 µM) 21% [middle of 12 runs]. For the same compound, the IC50 is, setting by setting: under setting [1], < 3.16 nM; (curve of compound) < 3.16 nM.

In the case of `C=CC(=O)Nc1cc(Nc2nccc(-c3cn(C)c4ccccc34)n2)c(OC)cc1N(C)CCN(C)C`, the viability, T/C reads like this: (compound 0.00316 µM) 98.4% [middle of 4 runs]; (compound 0.01 µM) 82.8% [middle of 4 runs]; (compound 0.0316 µM) 68.2% [middle of 4 runs]; (compound 0.1 µM) 67.7% [middle of 4 runs]; (compound 0.316 µM) 55.6% [middle of 4 runs]; (compound 1 µM) 47.3% [middle of 4 runs].

Take `CC(C)NCC(C(=O)N1CCN(c2ncnc3c2C(C)CC3O)CC1)c1ccc(Cl)cc1` (configuration not stated): the viability, T/C (compound 0.0316 µM) was 93.8% [middle of 4 runs]; the viability, T/C (compound 0.1 µM) was 90.7% [middle of 4 runs]; the viability, T/C (compound 0.316 µM) was 74.2% [middle of 4 runs]; the viability, T/C (compound 3.16 µM) was 54.6% [middle of 4 runs]; the viability, T/C (compound 10 µM) is 42.7% [middle of 4 runs]. Besides, the 50% inhibitory concentration (IC50) (curve of compound) is 844 nM and 5470 nM and 2640 nM.

With `CC(C)n1nc(-c2ccc3oc(N)nc3c2)c2c(N)ncnc21`, the viability, T/C by setting is: (compound 0.000316 µM) 102% [middle of 4 runs]; (compound 0.001 µM) 86.9% [middle of 4 runs]; (compound 0.00316 µM) 60.5% [middle of 4 runs]; (compound 0.01 µM) 55.1% [middle of 4 runs]; (compound 0.0316 µM) 40.9% [middle of 4 runs]; (compound 0.1 µM) 34.5% [middle of 4 runs]. For the same compound, the IC50 (curve of compound) is 11.4 nM [middle of 4 runs].

Turning to `CC(Nc1ccc2c(c1)OCCn1cc(N3C(=O)OCC3C(F)F)nc1-2)C(N)=O` (configuration not stated), the viability, T/C was 81% [middle of 4 runs] (compound 0.0316 µM); 53.6% [middle of 4 runs] (compound 0.1 µM); 40.8% [middle of 4 runs] (compound 0.316 µM); 42.5% [middle of 4 runs] (compound 1 µM); 37.6% [middle of 4 runs] (compound 3.16 µM); 34.7% [middle of 4 runs] (compound 10 µM). Moreover, the half-inhibitory concentration (IC50) (curve of compound) is 144 nM [middle of 4 runs].

Turning to `CC1(C)CCC(Nc2ncc(C(F)(F)F)c(-c3c[nH]c4c(P(C)(C)=O)c(C#N)ccc34)n2)CN1` (configuration not stated), the viability, T/C by setting is: (compound 0.000949 µM) 83.9% [middle of 4 runs]; (compound 0.003 µM) 79.2% [middle of 4 runs]; (compound 0.00949 µM) 62.7% [middle of 4 runs]; (compound 0.03 µM) 63.8% [middle of 4 runs]; (compound 0.0949 µM) 65% [middle of 4 runs]; (compound 0.3 µM) 53.4% [middle of 4 runs]. The IC50 (curve of compound) was > 300 nM.

With `CCN1CCN(Cc2ccc(Nc3ncc(F)c(-c4cc(F)c5nc(C)n(C(C)C)c5c4)n3)nc2)CC1`, the viability, T/C (compound 0.00316 µM) was 93.9% [middle of 4 runs]; the viability, T/C (compound 0.01 µM) was 80.5% [middle of 4 runs]; the viability, T/C (compound 0.0316 µM) was 65.2% [middle of 4 runs]; the viability, T/C (compound 0.1 µM) is 57.7% [middle of 4 runs]; the viability, T/C (compound 0.316 µM) is 70.8% [middle of 4 runs]; the viability, T/C (compound 1 µM) was 72.4% [middle of 4 runs]. Further, for the setting “curve of compound”, the IC50 was > 1000 nM.

On to `CCc1c2c(nc3ccc(O)cc13)-c1cc3c(c(=O)n1C2)COC(=O)[C@]3(O)CC`, for which the viability, T/C is 85.2% [middle of 4 runs] (compound 0.000949 µM); 73.3% [middle of 4 runs] (compound 0.003 µM); 62.9% [middle of 4 runs] (compound 0.00949 µM); 67.4% [middle of 4 runs] (compound 0.03 µM); 58.9% [middle of 4 runs] (compound 0.0949 µM); 50% [middle of 4 runs] (compound 0.3 µM). The IC50 (curve of compound) is 44.2 nM and > 300 nM and 89 nM.

On to `CCn1c(-c2cc(N3CCN(C)CC3)cnc2C(C)OC)c2c3cc(ccc31)-c1csc(n1)CC(NC(=O)C1CC1C)C(=O)N1CCCC(N1)C(=O)OCC(C)(C)C2` (configuration not stated), for which the viability, T/C (compound 0.000949 µM) was 28.7% [middle of 8 runs]; the viability, T/C (compound 0.003 µM) is 23.8% [middle of 8 runs]; the viability, T/C (compound 0.00949 µM) is 17.1% [middle of 8 runs]; the viability, T/C (compound 0.03 µM) was 13.9% [middle of 8 runs]; the viability, T/C (compound 0.0949 µM) was 14.7% [middle of 8 runs]; the viability, T/C (compound 0.3 µM) is 13.4% [middle of 8 runs]. The IC50 under setting [2] was < 0.949 nM.

As for `CCn1c(-c2cccnc2C(C)OC)c2c3cc(ccc31)N1CCOC(CC(NC(=O)C(C(C)C)N(C)C(=O)C3(F)CCN(C(=O)C#CC(C)(C)N(C)C)CC3)C(=O)N3CCCC(N3)C(=O)OCC(C)(C)C2)C1` (configuration not stated), the viability, T/C was 22.6% [middle of 8 runs] (compound 0.000949 µM); 24.6% [middle of 8 runs] (compound 0.00949 µM); 24.1% [middle of 8 runs] (compound 0.03 µM); 24.9% [middle of 8 runs] (compound 0.0949 µM); 24.9% [middle of 8 runs] (compound 0.3 µM). In addition, the IC50 under setting [2] was < 0.949 nM and 4.59 nM.

As to `C[C@@H](NC(=O)c1ncnc(N)c1Cl)c1ncc(C(=O)Nc2cc(C(F)(F)F)c(Cl)cn2)s1`, the viability, T/C by setting is: (compound 0.0316 µM) 114% [middle of 4 runs]; (compound 0.1 µM) 112% and 129% and 115% (2×); (compound 0.316 µM) 120% [middle of 4 runs]; (compound 1 µM) 112% [middle of 4 runs]; (compound 3.16 µM) 83.2% [middle of 4 runs]; (compound 10 µM) 45.7% [middle of 4 runs]. Besides, the IC50 (curve of compound) was 8.88 µM [middle of 4 runs].

For the compound `O=C(c1ccc(F)c(F)c1Nc1ccc(I)cc1F)N1CC(O)([C@@H]2CCCCN2)C1`, the viability, T/C (compound 0.00316 µM) is 80.3% [middle of 4 runs]; the viability, T/C (compound 0.01 µM) is 69% [middle of 4 runs]; the viability, T/C (compound 0.1 µM) was 42.2% [middle of 4 runs]; the viability, T/C (compound 0.316 µM) is 32.5% [middle of 4 runs]; the viability, T/C (compound 1 µM) is 27.8% [middle of 4 runs].
